From patent US20250324971A1, “HERBICIDAL DERIVATIVES” (SYNGENTA CROP PROTECTION AG, priority 2022, published 2025)

Key:
Assay type in all cases: in vivo
Zea mays (ZEAMX) [1] = test: Pre-Emergence Test (herbicidal, glasshouse pots); details: evaluated after 13 days, five-point scale
[2] = system: Ipomoea hederacea (IPOHE); test: Pre-Emergence Test (herbicidal, glasshouse pots); details: evaluated after 13 days, five-point scale
[3] = system: Echinochloa crus-galli (ECHCG); test: Pre-Emergence Test (herbicidal, glasshouse pots); details: evaluated after 13 days, five-point scale
[4] = system: Amaranthus palmeri (AMAPA); test: Pre-Emergence Test (herbicidal, glasshouse pots); details: evaluated after 13 days, five-point scale
[5] = system: Echinochloa crus-galli (ECHCG); test: Post-Emergence Test (herbicidal, glasshouse pots); details: evaluated after 13 days
How it was run: (§1)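 Damage after 13 days is given as a five-point score, where 5 means 81-100% and 1 means 0-20% injury. Seed-sown pots were treated by spray with the technical ingredient in aqueous acetone (50:50) with 0.5% Tween 20, dose expressed in g/ha.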

[6] = system: Ipomoea hederacea (IPOHE); test: Post-Emergence Test (herbicidal, glasshouse pots); details: evaluated after 13 days
How it was run: as §1

[7] = system: Amaranthus retoflexus (AMARE); test: Post-Emergence Test (herbicidal, glasshouse pots); details: evaluated after 13 days
How it was run: as §1

Setaria faberi (SETFA) [8] = test: Post-Emergence Test (herbicidal, glasshouse pots); details: evaluated after 13 days
How it was run: as §1

Zea mays (ZEAMX) [9] = test: Post-Emergence Test (herbicidal, glasshouse pots); details: evaluated after 13 days
How it was run: as §1

[10] = system: Amaranthus palmeri (AMAPA); test: Post-Emergence Test (herbicidal, glasshouse pots); details: evaluated after 13 days
How it was run: as §1

Setaria faberi (SETFA) [11] = test: Pre-Emergence Test (herbicidal, glasshouse pots); details: evaluated after 13 days, five-point scale
[12] = system: Amaranthus retoflexus (AMARE); test: Pre-Emergence Test (herbicidal, glasshouse pots); details: evaluated after 13 days, five-point scale

CCn1c(Oc2ccc3nccnc3c2)cc(=O)c(C(=O)O)c1-c1ccc(Cl)c(Cl)c1 [Compound 42, 2-(3,4-dichlorophenyl)-1-ethyl-4-oxo-6-quinoxalin-6-yloxy-pyridine-3-carboxylic acid]
percentage damage caused to the plant, ZEAMX (Zea mays (ZEAMX) [1]; rate 250 g/ha): 0 | percentage damage caused to the plant, IPHOE ([2]; rate 250 g/ha): 2 (2=21-40%) | percentage damage caused to the plant, ECHCG ([3]; rate 250 g/ha): 1 (1=0-20%) | percentage damage caused to the plant, AMAPA ([4]; rate 250 g/ha): 2 (2=21-40%) | Post-Emergence Test ECHCG percentage damage (five-point scale) ([5]; rate 250 g/ha): 1 (1=0-20%) | Post-Emergence Test IPHOE percentage damage (five-point scale) ([6]; rate 250 g/ha): 3 (3=41-60%) | Post-Emergence Test AMARE percentage damage (five-point scale) ([7]; rate 250 g/ha): 1 (1=0-20%) | Post-Emergence Test SETFA percentage damage (five-point scale) (Setaria faberi (SETFA) [8]; rate 250 g/ha): 1 (1=0-20%) | Post-Emergence Test ZEAMX percentage damage (five-point scale) (Zea mays (ZEAMX) [9]; rate 250 g/ha): 1 (1=0-20%) | Post-Emergence Test AMAPA percentage damage (five-point scale) ([10]; rate 250 g/ha): 1 (1=0-20%) | percentage damage caused to the plant, SETFA (Setaria faberi (SETFA) [11]; rate 250 g/ha): 1 (1=0-20%) | percentage damage caused to the plant, AMARE ([12]; rate 250 g/ha): 2 (2=21-40%)

CCn1c(Oc2cc(Cl)n(C)n2)cc(=O)c(C(=O)O)c1-c1ccc(Cl)c(Cl)c1 [Compound 60, 6-(5-chloro-1-methyl-pyrazol-3-yl)oxy-2-(3,4-dichlorophenyl)-1-ethyl-4-oxo-pyridine-3-carboxylic acid]
percentage damage caused to the plant, ZEAMX (Zea mays (ZEAMX) [1]; rate 250 g/ha): 0 | percentage damage caused to the plant, IPHOE ([2]; rate 250 g/ha): 4 (4=61-80%) | percentage damage caused to the plant, ECHCG ([3]; rate 250 g/ha): 1 (1=0-20%) | percentage damage caused to the plant, AMAPA ([4]; rate 250 g/ha): 0 | Post-Emergence Test ECHCG percentage damage (five-point scale) ([5]; rate 250 g/ha): 1 (1=0-20%) | Post-Emergence Test IPHOE percentage damage (five-point scale) ([6]; rate 250 g/ha): 4 (4=61-80%) | Post-Emergence Test AMARE percentage damage (five-point scale) ([7]; rate 250 g/ha): 4 (4=61-80%) | Post-Emergence Test SETFA percentage damage (five-point scale) (Setaria faberi (SETFA) [8]; rate 250 g/ha): 1 (1=0-20%) | Post-Emergence Test ZEAMX percentage damage (five-point scale) (Zea mays (ZEAMX) [9]; rate 250 g/ha): 3 (3=41-60%) | Post-Emergence Test AMAPA percentage damage (five-point scale) ([10]; rate 250 g/ha): 1 (1=0-20%) | percentage damage caused to the plant, SETFA (Setaria faberi (SETFA) [11]; rate 250 g/ha): 3 (3=41-60%) | percentage damage caused to the plant, AMARE ([12]; rate 250 g/ha): 2 (2=21-40%)

CCn1c(Oc2ccccc2F)cc(=O)c(C(=O)O)c1-c1ccc(Cl)c(Cl)c1 [Compound 3, 2-(3,4-dichlorophenyl)-1-ethyl-6-(2-fluorophenoxy)-4-oxo-pyridine-3-carboxylic acid]
percentage damage caused to the plant, ZEAMX (Zea mays (ZEAMX) [1]; rate 1000 g/ha): 2 (2=21-40%) | percentage damage caused to the plant, IPHOE ([2]; rate 1000 g/ha): 4 (4=61-80%) | percentage damage caused to the plant, ECHCG ([3]; rate 1000 g/ha): 4 (4=61-80%) | percentage damage caused to the plant, AMAPA ([4]; rate 1000 g/ha): 1 (1=0-20%) | Post-Emergence Test ECHCG percentage damage (five-point scale) ([5]; rate 1000 g/ha): 4 (4=61-80%) | Post-Emergence Test IPHOE percentage damage (five-point scale) ([6]; rate 1000 g/ha): 3 (3=41-60%) | Post-Emergence Test AMARE percentage damage (five-point scale) ([7]; rate 1000 g/ha): 3 (3=41-60%) | Post-Emergence Test SETFA percentage damage (five-point scale) (Setaria faberi (SETFA) [8]; rate 1000 g/ha): 4 (4=61-80%) | Post-Emergence Test ZEAMX percentage damage (five-point scale) (Zea mays (ZEAMX) [9]; rate 1000 g/ha): 2 (2=21-40%) | Post-Emergence Test AMAPA percentage damage (five-point scale) ([10]; rate 1000 g/ha): 2 (2=21-40%) | percentage damage caused to the plant, SETFA (Setaria faberi (SETFA) [11]; rate 1000 g/ha): 5 (5=81-100%) | percentage damage caused to the plant, AMARE ([12]; rate 1000 g/ha): 2 (2=21-40%)

CCn1c(Oc2ccc(C(F)(F)F)cc2)cc(=O)c(C(=O)O)c1-c1ccc(Cl)c(Cl)c1 [Compound 27, 2-(3,4-dichlorophenyl)-1-ethyl-4-oxo-6-[4-(trifluoromethyl)phenoxy]pyridine-3-carboxylic acid]
percentage damage caused to the plant, ZEAMX (Zea mays (ZEAMX) [1]; rate 250 g/ha): 0 | percentage damage caused to the plant, IPHOE ([2]; rate 250 g/ha): 0 | percentage damage caused to the plant, ECHCG ([3]; rate 250 g/ha): 1 (1=0-20%) | percentage damage caused to the plant, AMAPA ([4]; rate 250 g/ha): 1 (1=0-20%) | Post-Emergence Test ECHCG percentage damage (five-point scale) ([5]; rate 250 g/ha): 4 (4=61-80%) | Post-Emergence Test IPHOE percentage damage (five-point scale) ([6]; rate 250 g/ha): 4 (4=61-80%) | Post-Emergence Test AMARE percentage damage (five-point scale) ([7]; rate 250 g/ha): 4 (4=61-80%) | Post-Emergence Test SETFA percentage damage (five-point scale) (Setaria faberi (SETFA) [8]; rate 250 g/ha): 5 (5=81-100%) | Post-Emergence Test ZEAMX percentage damage (five-point scale) (Zea mays (ZEAMX) [9]; rate 250 g/ha): 2 (2=21-40%) | Post-Emergence Test AMAPA percentage damage (five-point scale) ([10]; rate 250 g/ha): 4 (4=61-80%) | percentage damage caused to the plant, SETFA (Setaria faberi (SETFA) [11]; rate 250 g/ha): 4 (4=61-80%) | percentage damage caused to the plant, AMARE ([12]; rate 250 g/ha): 1 (1=0-20%)

CCn1c(Oc2ccnc(Cl)c2)cc(=O)c(C(=O)O)c1-c1ccc(Cl)c(Cl)c1 [Compound 54, 6-[(2-chloro-4-pyridyl)oxy]-2-(3,4-dichlorophenyl)-1-ethyl-4-oxo-pyridine-3-carboxylic acid]
percentage damage caused to the plant, ZEAMX (Zea mays (ZEAMX) [1]; rate 250 g/ha): 1 (1=0-20%) | percentage damage caused to the plant, IPHOE ([2]; rate 250 g/ha): 4 (4=61-80%) | percentage damage caused to the plant, ECHCG ([3]; rate 250 g/ha): 4 (4=61-80%) | percentage damage caused to the plant, AMAPA ([4]; rate 250 g/ha): 1 (1=0-20%) | Post-Emergence Test ECHCG percentage damage (five-point scale) ([5]; rate 250 g/ha): 3 (3=41-60%) | Post-Emergence Test IPHOE percentage damage (five-point scale) ([6]; rate 250 g/ha): 4 (4=61-80%) | Post-Emergence Test AMARE percentage damage (five-point scale) ([7]; rate 250 g/ha): 4 (4=61-80%) | Post-Emergence Test SETFA percentage damage (five-point scale) (Setaria faberi (SETFA) [8]; rate 250 g/ha): 3 (3=41-60%) | Post-Emergence Test ZEAMX percentage damage (five-point scale) (Zea mays (ZEAMX) [9]; rate 250 g/ha): 4 (4=61-80%) | Post-Emergence Test AMAPA percentage damage (five-point scale) ([10]; rate 250 g/ha): 3 (3=41-60%) | percentage damage caused to the plant, SETFA (Setaria faberi (SETFA) [11]; rate 250 g/ha): 5 (5=81-100%) | percentage damage caused to the plant, AMARE ([12]; rate 250 g/ha): 3 (3=41-60%)

CCn1c(Oc2ccc(C)c(F)c2)cc(=O)c(C(=O)O)c1-c1ccc(C#N)c(Cl)c1 [Compound 73, 2-(3-chloro-4-cyano-phenyl)-1-ethyl-6-(3-fluoro-4-methyl-phenoxy)-4-oxo-pyridine-3-carboxylic acid]
percentage damage caused to the plant, ZEAMX (Zea mays (ZEAMX) [1]; rate 250 g/ha): 2 (2=21-40%) | percentage damage caused to the plant, IPHOE ([2]; rate 250 g/ha): 4 (4=61-80%) | percentage damage caused to the plant, ECHCG ([3]; rate 250 g/ha): 4 (4=61-80%) | percentage damage caused to the plant, AMAPA ([4]; rate 250 g/ha): 1 (1=0-20%) | Post-Emergence Test ECHCG percentage damage (five-point scale) ([5]; rate 250 g/ha): 4 (4=61-80%) | Post-Emergence Test IPHOE percentage damage (five-point scale) ([6]; rate 250 g/ha): 4 (4=61-80%) | Post-Emergence Test AMARE percentage damage (five-point scale) ([7]; rate 250 g/ha): 1 (1=0-20%) | Post-Emergence Test SETFA percentage damage (five-point scale) (Setaria faberi (SETFA) [8]; rate 250 g/ha): 3 (3=41-60%) | Post-Emergence Test ZEAMX percentage damage (five-point scale) (Zea mays (ZEAMX) [9]; rate 250 g/ha): 4 (4=61-80%) | Post-Emergence Test AMAPA percentage damage (five-point scale) ([10]; rate 250 g/ha): 1 (1=0-20%) | percentage damage caused to the plant, SETFA (Setaria faberi (SETFA) [11]; rate 250 g/ha): 5 (5=81-100%) | percentage damage caused to the plant, AMARE ([12]; rate 250 g/ha): 1 (1=0-20%)
